Data set [1] deals with PANC-1 (human pancreatic) cancer cells. The experiment in a line: MTT cellular proliferation assay, PANC-1. It counts as cell-based. The following applies: 72 hr. How it is done: (§1) Paclitaxel and camptothecin were purchased from Sigma Chemicals (St. Louis, Mo.). […] The solution was sonicated for 60 min at 69° C. and then placed in a shaking incubator at 25° C. for 48 hr. The solution was then centrifuged at 4,000×g, and the supernatant was filtered with a 0.2 μm nylon filter. […] The sample was labeled as TXL100. To make an aqueous solution of camptothecin, about 5 mg of camptothecin was weighed into a solution containing 70 mg/ml rubusoside. The solution was sonicated for 60 min at 69° C., and then placed in a shaking incubator at 25° C. for 48 hr. The solution was then centrifuged at 4,000×g and the supernatant was filtered with a 0.2 μm nylon filter. This aqueous solution was analyzed by HPLC and contained 10 μg/ml camptothecin in the presence of 70 mg/ml rubusoside. This sample was labeled as CPT70.
(§2) Inhibition of cellular proliferation was assessed by a MTT assay. Each well of the 96-well plate contained 10^4 cells/100 μl cell culture growth medium. The cells were seeded onto the plate and placed in a 37° C. incubator overnight. On the next day, the compound treatment was set up. A series of dilutions using phosphate buffered saline (PBS) containing 10% FBS (fetal bovine serum) with either the test compound or vehicle with cell culture growth medium was made for each well with a final volume of 200 μl. Each treatment had 8 wells in a column. Prior to the addition of the test compound, the existing medium in each of the wells was aspirated completely and carefully to avoid losing cells. A series of dilutions of the aqueous samples were made ranging from 20 μl to 0.078 μl supplemented with culture media to make a final volume of 200 μl for each well. The plate was placed in a 37° C. incubator for 72 hr. On the day of the staining, MTT solution (3 mg Thiazolyl Blue Tetrazolium Bromide/ml PBS was prepared. To each well, 25 μl MTT solution was directly added. The plate was then incubated for 90 to 120 min. Afterwards, the wells were aspirated completely and carefully. Finally, 50 μl DMSO (dimethyl sulfoxide) was added to each well. The plate was read at 650 nm on a microplate reader. Cell proliferations were calculated as % of the control using the vehicle treatment as the control.
(§3) Calculations of IC50 in molar concentrations were as follows. […] Thus, 1 μl/ml of TXL solution in the culture medium equaled 17 ng TXL/ml culture medium, which equaled 19.9 nM based on the molecular weight of 854.
(§4) CPT: The sample concentration of CPT was 10 μg/ml=10 ng/μl, and the molecular weight of camptothecin is 348. Thus, 1 μl/ml of CPT solution in the culture medium equaled 10 ng CPT/ml culture medium, which equaled 28.7 nM based on the molecular weight of 348.

A further data set can be described thus: physchem. How it is done:
Solubility test methods: A compound with low solubility was selected and weighed into multiple centrifuge tubes. Each experimental tube received a known amount of the solubilizing agent being tested. The control tubes remained only with the compound. The same volume, 1 mL, unless otherwise indicated, of deionized and distilled water was added to each tube. Alternatively, a set percentage of water solutions containing the solubilizer to be tested (e.g., 5% w/v or 10% w/v) were prepared separately. In these cases, the solubilizer-water solutions were added directly to the tubes containing the low-solubility compound. The tubes were then vortexed briefly and then sonicated for 60 min at temperature of 50° C. unless otherwise indicated. After sonication, the tubes were placed on an orbital shaker at a speed of 80 rpm in an incubator set at 25° C. for at least 24 hr. The tubes were then centrifuged at 4000 rpm for 10 min. The supernatant solution was passed through a 0.2 μm or 0.45 μm filter and analyzed for the concentration of the low-solubility compound, and sometimes the solubilizing compound, by HPLC or UV-Vis spectrophotometer.
The system was computer controlled, and the results were analyzed using Empower software. Calibrations curves were constructed using known concentrations of the compounds and were used to quantify the concentrations of the compounds dissolved in solution. A more complete description of the HPLC procedure for some of the diterpene glycosides is found in G. Chou et al., “Quantitative and fingerprint analyses of Chinese sweet tea plant (Rubus suavissimus S. Lee),” J. Agric. Food Chem., vol.
The ratio of peak areas was used to calculate the increase in water solubility in the absence or presence of solubilizers.

For data set [2], the system named is various human cancer cell lines. The conditions noted are these: Kaczirek 2004; read-out: Reported IC50 range; cited from earlier work.
Data set [3] in a line: Stability of solubilizers and solubilized water solutions (heat, pH, light, storage).
Data set [4] deals with A549 (human lung) cancer cells. The experiment in a line: MTT cellular proliferation assay, A549. It counts as cell-based. The following applies: 72 hr. The method, then:
as §1
Inhibition of cellular proliferation was assessed by a MTT assay. […] On the day of the staining, MTT solution (3 mg Thiazolyl Blue Tetrazolium Bromide/ml PBS was prepared. To each well, 25 μl MTT solution was directly added. The plate was then incubated for 90 to 120 min. Afterwards, the wells were aspirated completely and carefully. Finally, 50 μl DMSO (dimethyl sulfoxide) was added to each well. The plate was read at 650 nm on a microplate reader. Cell proliferations were calculated as % of the control using the vehicle treatment as the control. […]
On the technique in general: Tetrazolium dyes change colour on reduction, which living cells bring about.

For data set [5] the following is noted: The Merck Index (1996) or Material Safety Data Sheets; cited from earlier work.
The test system of data set [6] is PC3 (human prostate) cancer cells. The experiment in a line: MTT cellular proliferation assay, PC3. It counts as cell-based. The conditions noted are these: 72 hr. The method, then:
as §1, §2, §3, §4

A further data set has as its system PC3 cells. The following applies: existing formulation, Danesi 1995, Rowinsky 1990, read-out: Reported IC50 for PC3 cells, cited from earlier work.
Data set [7] relates to MDA-M231 breast cancer cells. The following applies: current drug formulation; Nornoo 2008; read-out: Concentration to kill 50% of cells; cited from earlier work.
A short description of data set [8]: Estimated safe daily consumption of steviol glycosides. An excerpt: Some diterpene glycosides have been approved by the FDA as sweeteners (e.g., rebaudioside A).
Where [9] appears, read: volume of aqueous sample per ml culture medium.
[10] abbreviates: Homo sapiens, converted from μl/ml, read-out: IC50.
Setting [11] is: 25 °C, aqueous with cosolvent or surfactant or cyclodextrin, thermodynamic from solid, Solubility in water with solubilizer, natural solubilizer (rubusoside) 20% w/v (200 mg in 1 ml).
The mark [12] stands for this setting: 25 °C, aqueous with cosolvent or surfactant or cyclodextrin, thermodynamic from solid, Solubility in water with solubilizer.

Molecules are shown by their SMILES. ≈ marks a conversion by molar mass, not a printed value. Like-named read-outs stand apart in the source and are kept apart here.

In the case of `CC[C@@]1(O)C(=O)OCc2c1cc1n(c2=O)Cc2cc3ccccc3nc2-1` [Camptothecin], the IC50 was 1.91 μl/ml in [1] (setting [9]); 54.9 nM in [1] (setting [10]); 10 to 3500 nM in data set [2]; 4.93 μl/ml in data set [4] (setting [9]); 142 nM in [4] (setting [10]); 1.03 μl/ml in data set [6] (setting [9]). Besides, the IC50 in [6] (setting [10]) was found to be 29.6 nM. Moreover, the “Concentration dissolved in rubusoside water solution” value in “physchem” (70 mg (109 mM) rubusoside) turned out to be 144 µM; in the data set “physchem” (70 mg rubusoside (70 mg/ml, 109 mM)) it was 50000 ng/mL. In addition, the solubility – broadly, the concentration that dissolves in the medium under given conditions – in “physchem” (setting [11]) stood at 144 µg/mL (≈ 0.413 mM); in the data set “physchem” (25 °C, water, thermodynamic from solid, Solubility of CPT, Table 4, rubusoside amount as in the label) it was 0.4 µg/mL (≈ 0.00115 mM). The “Stability of rubusoside water solution at room temperature” value in data set [3] is given as “stable at room temperature for at least two weeks”. The “Water solubility in words” value in data set [5] is “insoluble”.

Consider `CC(=O)O[C@H]1C(=O)[C@@]2(C)[C@H]([C@H](OC(=O)c3ccccc3)[C@]3(O)C[C@H](OC(=O)[C@H](O)[C@@H](NC(=O)c4ccccc4)c4ccccc4)C(C)=C1C3(C)C)[C@]1(OC(C)=O)CO[C@@H]1C[C@@H]2O` [Paclitaxel, reference compound], for which the IC50 in data set [1] (setting [9]) was 0.24 μl/ml; in data set [1] (setting [10]), 4.9 nM; with PC3 cells (listed as paclitaxel) it was 31.2 nM; in the data set with PC3 cells it was 50 nM; in data set [6] (setting [9]), 0.69 μl/ml; in data set [6] (setting [10]), 13.7 nM. Also, in data set [7], the IC50 is above 1000 nM. In addition, the “Solubility in water with solubilizer” value in the data set “physchem” is 10 µg/mL. Moreover, the Solubility increase factor entry in the data set “physchem” was “up to 877”. Moreover, in “physchem” (20 mg rubusoside in 1 ml water), the “Concentration dissolved in rubusoside water solution” value was 350 ng/mL.

With `COc1cc([C@@H]2c3cc4c(cc3[C@H](O)[C@H]3COC(=O)[C@H]23)OCO4)cc(OC)c1OC` [Podophyllotoxin, reference compound], the concentration in solution in “physchem” (25 °C, aqueous with cosolvent or surfactant or cyclodextrin, thermodynamic from solid) (solubility) was 919 µg/mL (≈ 2.22 mM). Moreover, the “Water solubility in words” value in data set [5] is reported as “nearly insoluble”.

Consider `CO[C@H]1C[C@@H]2CC[C@@H](C)[C@@](O)(O2)C(=O)C(=O)N2CCCC[C@H]2C(=O)O[C@H]([C@H](C)C[C@@H]2CC[C@@H](O)[C@H](OC)C2)CC(=O)[C@H](C)/C=C(\C)[C@@H](O)[C@@H](OC)C(=O)[C@H](C)C[C@H](C)/C=C/C=C/C=C/1C` [Rapamycin (Sirolimus), Rapamycin, reference compound], for which the Solubility increase factor in “physchem” was 92. In “physchem” (setting [12]), this compound yielded a solubility of 240 µg/mL (≈ 0.263 mM). The “Water solubility in words” value in data set [5] is listed as “insoluble”.

Compound `C[C@@H]1O[C@@H](OC[C@H]2O[C@@H](Oc3c(-c4ccc(O)c(O)c4)oc4cc(O)cc(O)c4c3=O)[C@H](O)[C@@H](O)[C@@H]2O)[C@H](O)[C@H](O)[C@H]1O` [Rutin] displayed a solubility in the data set “physchem” (setting [12]) of 1750 µg/mL (≈ 2.87 mM). For the same compound, in [5], the “Water solubility in words” value was “nearly insoluble”.

For `Cc1coc2c1C(=O)C(=O)c1c-2ccc2c1CCCC2(C)C` [Tanshinone IIA], the solubility is around 53.3 µg/mL (≈ 0.181 mM) in the data set “physchem” (25 °C, aqueous with cosolvent or surfactant or cyclodextrin, thermodynamic from solid, Solubility in water with solubilizer, natural solubilizer (rubusoside) 10% w/v (100 mg in 1 ml)) and around 128 µg/mL (≈ 0.434 mM) in “physchem” (setting [11]). For the same compound, in [5], the “Water solubility in words” value is “nearly insoluble”.

Consider `C=C1C[C@@]23CC[C@H]4[C@@](C)(CCC[C@@]4(C)C(=O)O[C@@H]4O[C@H](CO)[C@@H](O)[C@H](O)[C@H]4O)[C@@H]2CC[C@]1(O[C@@H]1O[C@H](CO)[C@@H](O)[C@H](O)[C@H]1O)C3` [rubusoside, b-D-glucosyl ester of 13-O-b-D-glucosyl-steviol], for which the Water solubility entry in the data set “physchem” is listed as “about 60 g/100 mL water”. The solubility in the data set “physchem” (25 °C, water, Solubility in water) was around 400000 µg/mL (≈ 622 mM); in “physchem” (37 °C, water, Solubility in water) it was around 800000 µg/mL (≈ 1240 mM). In addition, the “Daily consumption that is safe and has no adverse effect” value in [8] is on record as 8 mg rubusoside/kg body weight. Also, the No-observed-effect level result in data set [8] (estimate based on 383 mg/kg expressed as steviol) is on record as “up to 766 mg rubusoside/kg body weight”.

The values are drawn from patent publication US20110033525A1, “Diterpene Glycosides as Natural Solubilizers” (priority 2008, published 2011).
